The IC50 is the concentration needed to halve the response being measured.

In assay [1] the test system is sialidase of influenza A virus A/Duck/313/78 (H5N3). It counts as biochemical. Conditions: pH 6; read-out: Viral sialidase inhibition (IC50) H5N3.
Assay [2] deals with T1, sialidase of influenza A virus A/PR/8/34 (H1N1) (Influenza A virus, UniProt P03468).
T1 construct: preincubated with 5 μL of the virus containing 2 enzyme units; host or cells: whole virus preparation
Kind of assay: biochemical.

In assay [3] the target is T2, sialidase of influenza A virus A/Memphis/1/71 (H3N2) (Influenza A virus, UniProt P03475).
T2 construct: preincubated with 5 μL of the virus containing 2 enzyme units; host or cells: whole virus preparation
T2 sequence (P03475 whole entry): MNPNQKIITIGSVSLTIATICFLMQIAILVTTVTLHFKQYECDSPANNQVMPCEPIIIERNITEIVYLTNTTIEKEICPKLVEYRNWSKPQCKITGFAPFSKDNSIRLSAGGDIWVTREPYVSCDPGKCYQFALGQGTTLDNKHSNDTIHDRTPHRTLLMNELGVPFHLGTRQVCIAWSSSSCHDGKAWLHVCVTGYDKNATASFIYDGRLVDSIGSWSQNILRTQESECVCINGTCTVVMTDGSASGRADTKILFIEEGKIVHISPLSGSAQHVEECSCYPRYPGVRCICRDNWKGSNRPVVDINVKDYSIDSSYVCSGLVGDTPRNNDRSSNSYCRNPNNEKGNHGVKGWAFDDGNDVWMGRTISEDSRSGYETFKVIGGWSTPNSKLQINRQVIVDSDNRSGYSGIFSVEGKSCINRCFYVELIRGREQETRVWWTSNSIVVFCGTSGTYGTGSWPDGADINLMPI
Kind of assay: biochemical.

For assay [4], the target named is human sialidase NEU4. Conditions: previously reported; ref [39]; read-out: Human sialidase inhibition (IC50) NEU4; cited from earlier work.
The target of assay [5] is human sialidase NEU1. The note with it: previously reported; ref [39]; read-out: Human sialidase inhibition (IC50) NEU1; cited from earlier work.
Assay [6] concerns the target human sialidase NEU2. The note with it: previously reported; ref [39]; read-out: Human sialidase inhibition (IC50) NEU2; cited from earlier work.
The target of assay [7] is human sialidase NEU3. The note with it: previously reported; ref [39]; read-out: Human sialidase inhibition (IC50) NEU3; cited from earlier work.

T1 sequence (P03468 whole entry): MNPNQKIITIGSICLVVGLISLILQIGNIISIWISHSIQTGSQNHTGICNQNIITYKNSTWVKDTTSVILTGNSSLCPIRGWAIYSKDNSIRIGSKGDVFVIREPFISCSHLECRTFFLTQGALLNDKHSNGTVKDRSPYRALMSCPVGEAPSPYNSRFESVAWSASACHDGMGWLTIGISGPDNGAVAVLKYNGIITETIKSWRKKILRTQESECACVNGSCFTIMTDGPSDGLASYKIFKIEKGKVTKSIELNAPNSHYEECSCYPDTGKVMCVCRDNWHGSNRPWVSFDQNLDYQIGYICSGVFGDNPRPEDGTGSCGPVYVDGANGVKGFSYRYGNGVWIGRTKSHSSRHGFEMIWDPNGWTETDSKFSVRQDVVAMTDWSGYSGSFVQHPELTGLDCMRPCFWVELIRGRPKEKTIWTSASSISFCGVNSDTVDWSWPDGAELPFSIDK

On to `CCC(C)C(=O)NC[C@@H](O)[C@@H](O)[C@@H]1OC(C(=O)O)=C[C@H](O)[C@H]1NC(C)=O` (some centres unmarked) [Compound 10], for which the IC50 in assay [1] was greater than 1000 µM; in assay [2], 59 µM; in assay [3] it was greater than 1000 µM.

As to `CC(=O)NC[C@@H](O)[C@@H](O)[C@H]1OC(C(=O)O)=C[C@@H](O)[C@@H]1NC(C)=O` [Compound 5], the IC50 is 97 µM in assay [1]; 580 µM in assay [4]; 58 µM in assay [5]; 22 µM in assay [2]; greater than 1000 µM in assay [6]; 34 µM in assay [3]. The IC50 in assay [7] is greater than 1000 µM.

For the molecule `CCCC(=O)NC[C@@H](O)[C@@H](O)[C@H]1OC(C(=O)O)=C[C@@H](O)[C@@H]1NC(C)=O` [Compound 9], the results for the IC50 in assay [2] and in assay [3] were 97 µM and 559 µM, respectively.

For `CC(=O)N[C@@H]1[C@@H]([C@H](O)[C@H](O)CNC(=O)C2CC2)OC(C(=O)O)=C[C@H]1O` [Compound 8], the IC50 in assay [1] was 98 µM; in assay [4] it was 825 µM; in assay [5], 680 µM; in assay [2], 9 µM; in assay [6], greater than 1000 µM; in assay [3], 16 µM. Besides, the IC50 in assay [7] was greater than 1000 µM.

On to `CC(=O)N[C@@H]1[C@@H]([C@H](O)[C@H](O)CNC(=O)C2CCCC2)OC(C(=O)O)=C[C@H]1O` [Compound 7], for which the IC50 in assay [1] was greater than 1000 µM; in assay [2], 850 µM; in assay [3] it was greater than 1000 µM.

`CC(=O)N[C@@H]1[C@@H]([C@H](O)[C@H](O)CNC(=O)C(C)(C)C)OC(C(=O)O)=C[C@H]1O` [Compound 13]: the IC50 in assay [1] is greater than 1000 µM; in assay [2], 78 µM; in assay [3] it was 770 µM.

Turning to `CC(=O)N[C@@H]1[C@@H]([C@H](O)[C@H](O)CNC(=O)c2ccccc2)OC(C(=O)O)=C[C@H]1O` [Compound 6], the IC50 in assay [1], in assay [2] and in assay [3] was greater than 1000 µM in each case.

As for `CC(=O)N[C@@H]1[C@@H]([C@H](O)[C@H](O)CNC(=O)C(C)C)OC(C(=O)O)=C[C@H]1O` [Compound 11], the figures for the IC50 in assay [1], in assay [2] and in assay [3] were greater than 1000 µM, 54 µM and 680 µM, respectively.

Take `CCC(CC)C(=O)NC[C@@H](O)[C@@H](O)[C@@H]1OC(C(=O)O)=C[C@H](O)[C@H]1NC(C)=O` [Compound 14]: the figures for the 50% inhibitory concentration (IC50) in assay [1], in assay [2] and in assay [3] were greater than 1000 µM, 698 µM and greater than 1000 µM, respectively.

With `CCCCC(=O)NC[C@@H](O)[C@@H](O)[C@H]1OC(C(=O)O)=C[C@@H](O)[C@@H]1NC(C)=O` [Compound 12], the IC50 in assay [1] was greater than 1000 µM; in assay [2], 34 µM; in assay [3], 159 µM.

`CC(=O)N[C@H]1[C@H]([C@H](O)[C@H](O)CO)OC(C(=O)O)=C[C@@H]1O` [DANA, 5-acetamido-2,6-anhydro-3,5-dideoxy-D-glycero-D-galacto-non-2-enonic acid, reference compound]: the IC50 in assay [1] is 11 µM; in assay [4], 74 µM; in assay [3] it was 9 µM; in assay [7], 61 µM.

The values above are taken from PMC4971745, “Evaluation of a Set of C9 N-acyl Neu5Ac2en Mimetics as Viral Sialidase Selective Inhibitors” (International Journal of Medicinal Chemistry, 2010).
